In doi:10.1101/2025.09.10.675409, “ACAD10 encodes two orphan enzymes in the ether lipid biosynthetic and salvage pathways” (bioRxiv, 2026):

What was measured:
[1] = target: T1, C. elegans ACAD10 KD (ACAD10 kinase domain) (Caenorhabditis elegans, UniProt O01590); assay: […] incorporation, TLC, phosphorimaging; type: biochemical; details: [γ-32P]ATP
T1 construct: gene acds-10; kinase domain, residues 209-568, purified
T1 sequence (O01590 209-568): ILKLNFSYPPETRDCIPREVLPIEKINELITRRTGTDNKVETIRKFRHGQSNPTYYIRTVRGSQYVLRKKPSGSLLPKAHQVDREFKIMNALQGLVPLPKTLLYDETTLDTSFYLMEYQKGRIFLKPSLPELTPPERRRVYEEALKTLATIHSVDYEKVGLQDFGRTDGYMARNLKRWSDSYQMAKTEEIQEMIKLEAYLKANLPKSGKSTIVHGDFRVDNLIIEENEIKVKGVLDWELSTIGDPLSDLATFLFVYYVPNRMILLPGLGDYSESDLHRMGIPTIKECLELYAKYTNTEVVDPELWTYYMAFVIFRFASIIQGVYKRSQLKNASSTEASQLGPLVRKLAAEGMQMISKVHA

[2] = target: T2, C. elegans ACAD10 phosphatase domain (Caenorhabditis elegans, UniProt O01590); assay: dephosphorylation of […]-labelled lipid, TLC, phosphorimaging; type: biochemical; details: labelled compound; Mg2+
T2 construct: gene acds-10; phosphatase domain, residues 1-212
T2 sequence (O01590 1-212): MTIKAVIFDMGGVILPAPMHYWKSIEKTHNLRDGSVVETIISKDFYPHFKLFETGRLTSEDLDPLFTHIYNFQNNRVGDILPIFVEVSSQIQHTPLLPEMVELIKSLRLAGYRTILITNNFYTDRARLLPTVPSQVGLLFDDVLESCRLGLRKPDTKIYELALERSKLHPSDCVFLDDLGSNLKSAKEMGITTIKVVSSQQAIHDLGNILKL

[3] = target: T3, C. thermarum ACAD10 kinase domain (Caldalkalibacillus thermarum, UniProt F5L6J0); assay: X-ray crystallography, […] Å; type: binding; details: nucleotide groove between N- and C-lobe; Mg2+ and acetyl-CoA in crystallization, neither seen
T3 construct: gene CathTA2_1440; purified prokaryotic ACAD10 kinase domain homolog; HYDxK motif with D214/K216, N219, DWE motif D234-E236, R61, E78

[4] = target: T1, C. elegans ACAD10 KD (ACAD10 kinase domain); assay: […] incorporation into lipid, TLC; type: biochemical; details: activator; purified domain with mouse liver mitochondrial extract as lipid source; Mg2+
[5] = target: T3, C. thermarum ACAD10 kinase domain; assay: […] incorporation, TLC, phosphorimaging; type: biochemical; details: activator; binding site only modelled, no density in crystal

## CCCCCCCCCCCCCCCCOCC(O)CO (racemic) [chimyl alcohol, 1-O-hexadecyl-rac-glycerol]
[1]
  32P incorporation, TLC, phosphorimaging: C. elegans ACAD10 phosphorylated chimyl alcohol (1-O-hexadecyl-rac-glycerol) (Figure 1G)

## CCCCCCCCCCCCCCCCOC[C@H](COP(=O)(O)O)OC(C)=O [1-alkyl (16:0), 2-acetyl (2:0), 1-O-alkyl-2-acetyl-sn-glycero-3-phosphate]
[2]
  dephosphorylation of 32P-labelled lipid, TLC, phosphorimaging: phosphatase domain selectively dephosphorylated 1-O-alkyl-2-acetyl-sn-glycero-3-phosphate but not 1-O-alkyl-2-acyl-sn-glycero-3-phosphate

## Nc1ncnc2c1ncn2[C@@H]1O[C@H](COP(=O)(O)OP(=O)(O)NP(=O)(O)O)[C@@H](O)[C@H]1O [AMP-PNP]
[3]
  X-ray crystallography, 2.15 Å: crystal structure of the Caldalkalibacillus thermarum ACAD10 kinase domain bound to the ATP analog AMP-PNP

## CC(=O)SCCNC(=O)CCNC(=O)[C@H](O)C(C)(C)COP(=O)(O)OP(=O)(O)OC[C@H]1O[C@@H](n2cnc3c(N)ncnc32)[C@H](O)[C@@H]1OP(=O)(O)O [acetyl-CoA]
[4]
  32P incorporation into lipid, TLC: In addition to acetyl-CoA, CoA alone or other CoA thioesters also activated
[5]
  32P incorporation, TLC, phosphorimaging: acetyl-CoA stimulates C. thermarum ACAD10 kinase domain
